This is an account of results in patent US20250332283A1, “NUCLEOTIDE DELIVERY FROM INJECTABLE HYDROPHOBIC BIOMATERIAL” (DANMARKS TEKNISKE UNIVERSITET, priority 2022, published 2025).

By logP is commonly meant the decadic logarithm of the partition coefficient of the neutral form, usually between octanol and water.

Data set [1] is described as follows: Biodistribution of Gd-ASO after intratumoral injection, ICP-MS. The format is in vivo, 4T1 tumor bearing Balb/CJRj mice. As for the experimental part: Methods: Gadolinium-labeled ASOs were synthesized as described in example 41. Spermine-Chol Gd-ASO complexes were prepared using the hydrophobic ionpairing method as described in example 43. The ASO complex was concentrated by freeze-drying, dissolved i in DMSO and embedded into NCCell (SuBen: GTH: EtOH: DMSO 55:20:2:15) according to example 45. The final Gd-ASO concentration in the NCCell was […]. Free Gd-ASO was prepared in PBS buffer at a concentration of 0.95 μg/μL.
On Day 0, 4T1 tumor bearing Balb/CJRj mice were, under anesthesia (isoflurane), injected intratumorally with 50 μL of NCCell or 42 μL of free Gd-ASO in PBS, with a total concentration of 40 μg Gd-ASO per injection. […] Free ASO was injected using a 23G needle.
Blood was collected from different groups 10 minutes, 1 hour, 4 hours, 24 hours, 72 hours and 5 days after treatment. Organs and other fluids (liver, spleen, lungs, kidneys) were harvested 24 hours and 5 days after treatment. For sample processing, full organ weight was recorded, as well as the weight of the tissue used, and was further processed for ICP-MS measurements. To prepare tissue for ICP-MS analysis, 50-100 mg of organs or NCCell were digested in 500 μL HNO3, (69%) 50 μL HCl (37%) and 300 μL H2O2 (35%) at 65° C. overnight followed by further dilutions in water and 2% HCl and subjected to ICP-MS analysis using Ir (0.5 ppb) as internal standard.

The conditions of data set [2]: at a neutral pH of 7; cited from earlier work.

Entries after “also recorded” stand apart in the source; their conditions may differ. {5AmMC6} = amino-modifier C6 linker (IDT), here bearing the Gd-DOTA label; l = locked nucleic acid (LNA); d = 2'-deoxy (DNA)

For the molecule “free ASO: Gd-DOTA labelled ASO /5AmMC6/+G*+T*+C*A*C*A*A*T*G*C*A*T*T*+C*+T*+A in PBS (DNA GTCACAATGCATTCTA; sugars from the 5' end l3 d10 l3, all phosphorothioate, 5' {5AmMC6}, methylation of C not given here; Gd-DOTA attached via 5' amino linker)”, in data set [1] (24 and 120 hours after intratumoral injection of 40 μg Gd-ASO), the “Gd-ASO concentration in liver, spleen, kidney and lung” value was “highest concentration of free ASO was observed in the lungs, followed by the liver and spleen”. Moreover, the Gd-ASO in blood result in data set [1] (10 minutes to 5 days after intratumoral injection, listed as free ASOs) is reported as “could be detected 10 minutes after injection; also recorded: no detectable Gd signal in the blood at later timepoints”.

With `CCN(CCO)CCCOc1ccc2c(Nc3cc(CC(=O)Nc4cccc(F)c4)[nH]n3)ncnc2c1` [AZD281], the logP in data set [2] is 2.
